Reference: patent publication US20260226073A1 (AURIGENE ONCOLOGY LIMITED, priority 2023, published 2026)

How the values were obtained:
[1] = biological target: T1, human recombinant CBL-b (human Biotin CBL-b recombinant protein a.a. 39-426) (Homo sapiens, UniProt Q13191); assay: Biochemical assay for CBL-b inhibition (ligand displacement TR-FRET); assay type: binding; conditions: 50 nM CBL-b, 0.3 μM Bodipy FL-Probe, read-out: IC50 (CBL-b inhibition, group)
T1 construct: human Biotin CBL-b recombinant protein a.a; 39-426; Biotin (biotinylated); made in house
Summary of the method: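 Ligand-displacement TR-FRET: 0.3 μM Bodipy FL probe competes with compound for 50 nM biotin-CBL-b (aa 39-426) after a 60 min RT compound pre-incubation; terbium-streptavidin detection, 60 min each step. Dose-response sigmoidal fitting gave IC50 and % maximum inhibition.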

[2] = test system: NFAT signaling pathway in Jurkat NFAT reporter cells; assay: Jurkat NFAT reporter assay; assay type: cell-based; conditions: Homo sapiens, 30 min with compound, then soluble anti-human CD3/CD28 antibody for 6 hours, luciferase readout, read-out: EC50 (Group)
Summary of the method: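 Results are expressed as fold change relative to stimulated, inhibitor-free cells. Stimulation was 6 h with soluble anti-human CD3/CD28 antibody after a 30-min exposure of 1×10^5 NFAT-RE luciferase Jurkat reporter cells per well to the Cbl-b inhibitor; signal read by Bio-Glo bioluminescence.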

T1 sequence (Q13191 39-426): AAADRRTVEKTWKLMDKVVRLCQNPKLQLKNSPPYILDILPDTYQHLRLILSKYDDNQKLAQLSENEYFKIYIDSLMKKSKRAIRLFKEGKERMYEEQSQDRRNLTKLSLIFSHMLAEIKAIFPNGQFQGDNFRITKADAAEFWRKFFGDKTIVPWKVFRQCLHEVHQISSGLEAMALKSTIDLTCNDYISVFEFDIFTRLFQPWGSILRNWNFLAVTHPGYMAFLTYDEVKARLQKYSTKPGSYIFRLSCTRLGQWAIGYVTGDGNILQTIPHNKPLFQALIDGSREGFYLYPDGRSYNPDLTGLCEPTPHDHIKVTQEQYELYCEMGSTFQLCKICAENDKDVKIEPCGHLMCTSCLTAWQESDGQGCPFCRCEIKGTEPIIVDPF

Row | Structure (SMILES) | IC50 [1] | EC50 [2]
1 | C[C@@H]1C[C@H](C)CN(Cc2cc(N3Cc4ccc(C5(Cc6nncn6C)COC5)cc4C3=O)cc(C(F)(F)F)c2)C1 [Compound 65, 2-(3-(((3S,5R)-3,5-Dimethylpiperidin-1-yl)methyl)-5-(trifluoromethyl)phenyl)-6-(3-((4-methyl-4H-1,2,4-triazol-3-yl)methyl)oxetan-3-yl)isoindolin-1-one] | 80 to 300 nM | 300 to 1000 nM
2 | C[C@H]1CCCN(Cc2cc(F)cc(N3Cc4ccc(C5(Cc6nncn6C)COC5)cc4C3=O)c2)C1 [Compound 3, (S)-2-(3-Fluoro-5-((3-methylpiperidin-1-yl)methyl)phenyl)-6-(3-((4-methyl-4H-1,2,4-triazol-3-yl)methyl)oxetan-3-yl)isoindolin-1-one] | < 80 nM | 1000 to 10000 nM
3 | C[C@H](NCC1CC(F)(F)C1)c1cc(Cl)nc(N2Cc3ccc(C4(Cc5nncn5C)COC4)cc3C2=O)c1 (single isomer, unassigned) [Compound 222] | < 80 nM | < 300 nM
4 | Cn1cnnc1-c1cc(Cl)ccc1-c1ccc2c(c1)C(=O)N(c1cc(CNC[C@@H]3CCCO3)cc(Cl)n1)C2 (single isomer, unassigned) [Compound 123, 6-(4-Chloro-2-(4-methyl-4H-1,2,4-triazol-3-yl)phenyl)-2-(6-chloro-4-((((tetra-hydrofuran-2-yl)methyl)amino)methyl)pyridin-2-yl)isoindolin-1-one] | < 80 nM | 300 to 1000 nM
5 | Cn1cnnc1CC1(c2ccc3c(c2)C(=O)N(c2cc(CN4CCCC(F)(F)C4)cc(C(F)(F)F)n2)C3)COC1 [Compound 47, 2-(4-((3,3-Difluoropiperidin-1-yl)methyl)-6-(trifluoromethyl)pyridin-2-yl)-6-(3-((4-methyl-4H-1,2,4-triazol-3-yl)methyl)oxetan-3-yl)isoindolin-1-one] | 80 to 300 nM | 1000 to 10000 nM
6 | C[C@H](NCc1cc(Cl)nc(N2Cc3ccc(-c4ccc(Cl)cc4-c4nncn4C)cc3C2=O)c1)C1CC1 (single isomer, unassigned) [Compound 109, 6-(4-Chloro-2-(4-methyl-4H-1,2,4-triazol-3-yl)phenyl)-2-(6-chloro-4-(((1-cyclo-propylethyl)amino)methyl)pyridin-2-yl)isoindolin-1-one] | < 80 nM | < 300 nM
7 | CC(NCC1CC1(F)F)c1cc(Cl)nc(N2Cc3ccc(C4(Cc5nncn5C)COC4)cc3C2=O)c1 (single isomer, unassigned) [Compound 206, 2-(6-Chloro-4-(1-(((2,2-difluorocyclopropyl)methyl)amino)ethyl)pyridin-2-yl)-6-(3-((4-methyl-4H-1,2,4-triazol-3-yl)methyl)oxetan-3-yl)isoindolin-1-one] | < 80 nM | < 300 nM

The remaining lines, values ahead:

Row | IC50 [1] | EC50 [2] | Structure (SMILES)
8 | < 80 nM | 300 to 1000 nM | Cc1cc(C(C)(C)NCC2CC2)cc(N2Cc3ccc(-c4ccc(F)cc4-c4nncn4C)cc3C2=O)n1 [Compound 293, 2-(4-(2-((Cyclopropylmethyl)amino)propan-2-yl)-6-methylpyridin-2-yl)-6-(4-fluoro-2-(4-methyl-4H-1,2,4-triazol-3-yl)phenyl)isoindolin-1-one]
9 | < 80 nM | 300 to 1000 nM | Cc1cc(CNCC2CC2)cc(N2Cc3ccc(-c4ccc(Cl)cc4-c4nncn4C)cc3C2=O)c1 [Compound 280, 6-(4-Chloro-2-(4-methyl-4H-1,2,4-triazol-3-yl)phenyl)-2-(3-(((cyclopropyl-methyl)amino)methyl)-5-methylphenyl)isoindolin-1-one]
10 | < 80 nM | 300 to 1000 nM | Cc1cc(CNCC2CC2(F)F)cc(N2Cc3ccc(-c4ccc(Cl)cc4-c4nncn4C)cc3C2=O)n1 (stereo not shown) [Compound 269]
11 | < 80 nM | < 300 nM | COC1CCCC1NCc1cc(Cl)nc(N2Cc3ccc(C4(Cc5nncn5C)COC4)cc3C2=O)c1 (stereo not shown) [Compound 253, 2-(6-Chloro-4-(((2-methoxycyclopentyl)amino)methyl)pyridin-2-yl)-6-(3-((4-methyl-4H-1,2,4-triazol-3-yl)methyl)oxetan-3-yl)isoindolin-1-one]
